Results: patent US6417160B1, “Methods for increasing schwann cell survival” (priority 1997, dated 2002)

Assays:
[1] = system: PD2 (non-proliferating) and PD15 (proliferating) Schwann cells; assay: Schwann cell survival in high glucose media (counts of intact nuclei); assay type: cell-based, rat; conditions: IGF-1 1 ng/ml, NAC 10^−7 M, DMD 10^−9 M; for Schwann cell survival: 24 hr of high glucose exposure (40 mM); for number of cells (intact nuclei relative to 5.5 mM glucose control): 40 mM glucose, 2 hr
PD2 Schwann cells = assay: Mitochondrial membrane potential (ΔΨM) by CMTMR confocal imaging; assay type: cell-based, rat; conditions: 40 mM glucose, DMD 10^−9 M; for distribution frequencies of ΔΨM (CMTMR intensity): 6 h, CsA 10^−7, ATR 1 mM; for CMTMR fluorescent intensity (confocal images): 6 hr, CsA 10^−7 M, ATR 1 mM
Source text: As has been previously reported in a number of models of apoptosis, apoptotic cell death is often preceded by a fall in mitochondrial membrane potential (ΔΨM). […] This dye is preferentially taken up by actively respiring mitochondria where it binds to protein thiol groups within the mitochondrial matrix and is retained following aldehyde fixation. The CMTMR fluorescence intensity therefore represents the highest level of negativity difference (i.e., the greatest ΔΨM) in the mitochondria during the period of dye exposure prior to fixation.
A Leica true confocal scanning (TCS) microscope was used to image the cells. A pinhole aperture of 20 is maintained with constant laser and photo-detector power settings and an excitation filter wavelength of 488 nm and a band-pass emission filter of 600/30 nm. Each image was scanned using an oil-immersion, 100×, 1.4 N.A. objective at 512 by 512 by 8 bits per pixel resolution, background offset of −1 and line averaged 32 times. The confocal images were saved as grey-scale tagged image file format (TIFF) files for analysis and recolourization. The Metamorph™ (Universal Imaging, Ltd.) image capture and analysis system for Windows was used to measure the intensity of CMTMR fluorescence in individual mitochondria. In each mitochondrion, no fewer than two regions were defined by a box measuring 9 pixels square each. The average intensity per pixel within each defined region is measured and automatically logged to a Microsoft Excel spreadsheet for analysis.
At the end of the indicated time point, Schwann cells so treated were incubated with CMTMR to estimate ΔΨM, fixed with 4% paraformaldehyde, and processed for the immunocytochemical co-localization of hexokinase (Type 1) to mitochondria. The fixed coverslips were blocked for 1 hr with 10% normal donkey serum to minimize non-specific binding, and incubated with a mouse monoclonal antibody raised against hexokinase (Type 1; Chemicon) at a dilution of 1:500 overnight at 4° C. Coverslips were washed in PBS and incubated with a Cy5 conjugated donkey anti-mouse (Jackson Immuno Research) at a dilution of 1:250 for 1 hr at room temperature. Coverslips were then washed with PBS and mounted with Aquamount (BDH).

Schwann cells = assay: NO production by Griess reaction (secreted nitrite in culture medium); assay type: cell-based, rat; conditions: for NO2 production: Schwann cells exposed to 40 mM glucose, 24 hr, DMD 10^−9 M, L-NIL 10^−4 M
Method: To determine the role of NO signaling in high glucose induced Schwann cell apoptosis, PD2 and PD15 Schwann cells were cultured, as described, in the presence of 5.5 or 40 mM glucose for 24 hr. Cells exposed to 40 mM glucose were also treated with DMD (10^−9 M), the NOS inhibitor L-NIL (10^−4 M) or an inhibitor of the constitutive, Ca^++-dependent isoform of NOS (cNOS), S-methyl-thiocitruline (SMTC, 10^−4 M). […] PD2 Schwann cells were also treated with increasing amounts of TNF-α […] plus IFN-γ (50, 100, 250, and 500U) for 24 hr to establish a dose-response threshold for the assay.
The Griess reaction, which measures secreted nitrite (NO2) in the culture medium, was used to investigate NO production by Schwann cells.

[2] = Cell rescue with P450 inhibitor Proadifen (animal and cell-culture studies); conditions: P450 inhibitor Proadifen co-administered
PC12 cells = conditions: cited from earlier work
[3] = system: cultured cerebellar granule cells; conditions: cited from earlier work
[4] = system: neuronal and non-neuronal cells; conditions: several systems; cited from earlier work
[5] = Hepatic metabolism after oral administration
[6] = Stability of deprenyl versus pH of the medium; conditions: pH about 3-5 versus pH about 7

Row | Molecule | Schwann cell survival [1] | number of cells (intact nuclei relative to 5.5 mM glucose control) ([1]; non-proliferating cells) | number of cells (intact nuclei relative to 5.5 mM glucose control) ([1]; proliferating cells) | CMTMR fluorescent intensity (confocal images) (PD2 Schwann cells) | further results
1 | C#CCNC(C)Cc1ccccc1 (single isomer, unassigned; (-)) [DMD, (−)-desmethyldeprenyl] | significantly improve Schwann cell survival | significant increase | significant increase | comparable levels of CMTMR fluorescent intensity compared with cells in base media | distribution frequencies of ΔΨM (CMTMR intensity) (PD2 Schwann cells): restored ΔΨM distributions comparable with the base media; NO2 production (Schwann cells): slight decrease; cell-rescuing activity on administration of Proadifen [2]: does not block the cell-rescuing activity
2 | C#CCN(C)[C@H](C)Cc1ccccc1 [(−)-deprenyl, R-(−)-N,α-Dimethyl-N-2-propynyl phenethylamine] | – | – | – | – | trophic withdrawal induced drop in ΔΨM (PC12 cells): prevent; AraC induced drop in ΔΨM [3]: prevent; apoptotic death of neuronal and non-neuronal cells [4]: reduce the apoptotic death; metabolites formed by the liver [5]: (−)-desmethyldeprenyl, as well as (−)-methamphetamine and (−)-amphetamine; stability [6]: more stable at a pH in the range of about 3-5 than at a pH of about 7; cell-rescuing activity on administration of Proadifen [2]: reduces the ability of (−)-deprenyl to prevent cell death
3 | C=C1[C@@H]2CC[C@H]3[C@]4(C)C[C@H](O[C@@H]5O[C@H](CO)[C@@H](OS(=O)(=O)O)[C@H](OS(=O)(=O)O)[C@H]5OC(=O)CC(C)C)C[C@@H](C(=O)O)[C@H]4CC[C@]3(C2)[C@H]1O [ATR, atractyloside] | – | – | – | decreased CMTMR brightness | distribution frequencies of ΔΨM (CMTMR intensity) (PD2 Schwann cells): pronounced shift to the left
4 | CC(=N)NCCCC[C@H](N)C(=O)O [L-NIL] | – | – | – | – | stimulation of NO2 release by TNF-α/IFN-γ (Schwann cells; L-NIL added): prevented; NO2 production (Schwann cells): slight decrease
5 | CC(=O)N[C@@H](CS)C(=O)O [NAC, N-acetyl-L-cysteine] | significantly improve Schwann cell survival | significant increase | significant increase | – | –
6 | IGF-1: insulin-dependant growth factor (IGF); anti-apoptotic agent added to high glucose media | significantly improve Schwann cell survival | significant increase | significant increase | – | –
7 | cyclosporin A [CsA] | – | – | – | enhanced brightness | –
